Test results as given in the supplement of paper PMC10307832.

Experiments:
Test in all cases: relative viability (nuclei count vs DMSO), 5 days (fraction); higher = more cells survive
Ibrutinib + Palbociclib = compound: C=CC(=O)N1CCC[C@@H](n2nc(-c3ccc(Oc4ccccc4)cc3)c3c(N)ncnc32)C1 [Ibrutinib] + CC(=O)c1c(C)c2cnc(Nc3ccc(N4CCNCC4)cn3)nc2n(C2CCCC2)c1=O [Palbociclib] (partner 0.5 µM)
In short: (§1)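 Nuclei were stained with Hoechst during a one-step fixation (final 0.05% Triton X-100, 1% formaldehyde, 1 ug/ml Hoechst) carried out 5 days after dosing, then counted on 4× images. The cells, lung cancer lines in 1536-well plates, had been dosed by pin tool the day after seeding with one drug alone or a fixed anchor-drug dose plus five library-drug doses (not always all listed) in √10 steps. Relative viability is the nuclei count in treated wells divided by that in vehicle wells, and each value is the median of duplicate plates.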

BMX-IN-1 + Palbociclib = compound: C=CC(=O)Nc1cc(-n2c(=O)ccc3cnc4ccc(-c5ccc(NS(C)(=O)=O)cc5)cc4c32)ccc1C [BMX-IN-1] + CC(=O)c1c(C)c2cnc(Nc3ccc(N4CCNCC4)cn3)nc2n(C2CCCC2)c1=O [Palbociclib] (partner 0.5 µM)
In short: as §1

Ibrutinib + AZD7762 = compound: C=CC(=O)N1CCC[C@@H](n2nc(-c3ccc(Oc4ccccc4)cc3)c3c(N)ncnc32)C1 [Ibrutinib] + NC(=O)Nc1cc(-c2cccc(F)c2)sc1C(=O)N[C@H]1CCCNC1 [AZD7762] (partner 0.2 µM)
In short: as §1

BMX-IN-1 + Tozasertib = compound: C=CC(=O)Nc1cc(-n2c(=O)ccc3cnc4ccc(-c5ccc(NS(C)(=O)=O)cc5)cc4c32)ccc1C [BMX-IN-1] + Cc1cc(Nc2cc(N3CCN(C)CC3)nc(Sc3ccc(NC(=O)C4CC4)cc3)n2)n[nH]1 [Tozasertib] (partner 0.1 µM)
In short: as §1

Cell Line | relative viability (Ibrutinib + Palbociclib; first compound 0.005 µM) | relative viability (Ibrutinib + Palbociclib; first compound 0.01581 µM) | relative viability (Ibrutinib + Palbociclib; first compound 0.05 µM) | relative viability (Ibrutinib + Palbociclib; first compound 0.1581 µM) | relative viability (Ibrutinib + Palbociclib; first compound 0.5 µM) | relative viability (BMX-IN-1 + Palbociclib; first compound 0.02 µM) | relative viability (BMX-IN-1 + Palbociclib; first compound 0.2 µM) | relative viability (BMX-IN-1 + Palbociclib; first compound 0.6325 µM) | relative viability (BMX-IN-1 + Palbociclib; first compound 2 µM) | relative viability (Ibrutinib + AZD7762; first compound 0.005 µM) | relative viability (Ibrutinib + AZD7762; first compound 0.01581 µM) | relative viability (Ibrutinib + AZD7762; first compound 0.05 µM) | relative viability (Ibrutinib + AZD7762; first compound 0.1581 µM) | relative viability (Ibrutinib + AZD7762; first compound 0.5 µM) | relative viability (BMX-IN-1 + Tozasertib; first compound 0.02 µM) | relative viability (BMX-IN-1 + Tozasertib; first compound 0.2 µM) | relative viability (BMX-IN-1 + Tozasertib; first compound 0.6325 µM) | relative viability (BMX-IN-1 + Tozasertib; first compound 2 µM)
NCI-H650 | 0.399 | 0.303 | 0.415 | 0.414 | 0.358 | 0.293 | 0.332 | 0.331 | 0.353 | 1.02 | 0.858 | 0.94 | 1.15 | 1.02 | 0.753 | 0.838 | 0.739 | 0.764
NCI-H460 | 0.167 | 0.19 | 0.197 | 0.149 | 0.202 | 0.131 | 0.195 | 0.213 | 0.149 | 0.634 | 0.563 | 0.646 | 0.622 | 0.659 | 0.525 | 0.796 | 0.531 | 0.569
NCI-H1666 | 0.647 | 0.692 | 0.639 | 0.631 | 0.659 | 0.64 | 0.672 | 0.606 | 0.628 | 0.803 | 0.777 | 0.843 | 0.892 | 0.783 | 0.595 | 0.57 | 0.624 | 0.593
LK-2 | 0.469 | 0.662 | 0.586 | 0.542 | 0.579 | 1.1 | 0.75 | 0.704 | 0.895 | 0.31 | 0.513 | 0.438 | 0.405 | 0.25 | 0.223 | 0.173 | 0.161 | 0.184
NCI-H2009 | 0.136 | 0.214 | 0.183 | 0.169 | 0.288 | 0.182 | 0.212 | 0.207 | 0.254 |  |  |  |  |  | 0.826 | 0.853 | 0.781 | 0.712
COR-L 105 | 0.403 | 0.406 | 0.424 | 0.393 | 0.303 | 0.449 | 0.442 | 0.447 | 0.39 |  |  |  |  |  | 0.388 | 0.318 | 0.76 | 0.358
LXF-289 | 0.607 | 0.598 | 0.582 | 0.556 | 0.606 | 0.65 | 0.615 | 0.639 | 0.588 | 1.22 | 1.07 | 1.06 | 1.1 | 1.15 | 0.212 | 0.197 | 0.187 | 0.146
HARA | 0.284 | 0.217 | 0.241 | 0.254 | 0.223 | 0.304 | 0.299 | 0.258 | 0.247 | 0.495 | 0.449 | 0.602 | 0.318 | 0.408 | 0.0824 | 0.0995 | 0.111 | 0.092
NCI-H1975 | 0.546 | 0.446 | 0.502 | 0.457 | 0.17 | 1 | 0.655 | 0.685 | 0.698 | 0.647 | 0.556 | 0.517 | 0.522 | 0.342 | 0.958 | 1.1 | 0.792 | 0.695
UMC-11 |  | 0.335 | 0.359 | 0.417 | 0.355 | 0.345 | 0.336 | 0.341 | 0.318 |  |  |  |  |  | 0.194 | 0.197 | 0.244 | 0.196
NCI-H2023 | 0.33 | 0.292 | 0.346 | 0.41 | 0.311 | 0.48 | 0.389 | 0.386 | 0.381 |  |  |  |  |  | 0.363 | 0.43 | 0.434 | 0.333
NCI-H23 | 0.484 | 0.465 | 0.456 | 0.53 | 0.506 | 0.536 | 0.526 | 0.555 | 0.47 | 0.263 | 0.237 | 0.234 | 0.218 | 0.283 | 0.331 | 0.367 | 0.586 | 0.34
NCI-H1703 |  |  |  |  |  |  |  |  |  |  | 0.126 |  | 0.148 | 0.19 |  |  |  | 
CAL-12T | 0.241 | 0.286 | 0.233 | 0.286 | 0.14 | 0.466 | 0.415 | 0.523 | 0.503 | 0.701 | 0.69 | 0.544 | 0.616 | 0.766 | 0.345 | 0.375 | 0.344 | 0.297
NCI-H661 | 0.365 | 0.337 | 0.332 | 0.366 | 0.304 | 0.388 | 0.39 | 0.421 | 0.398 |  |  |  |  |  | 0.378 | 0.358 | 0.352 | 0.348
NCI-H1623 |  |  |  |  |  |  |  |  |  |  |  |  |  |  | 0.494 | 0.465 | 0.447 | 0.394
SK-LU-1 | 0.372 | 0.365 | 0.392 | 0.407 | 0.365 | 0.323 | 0.399 | 0.385 | 0.335 |  |  |  |  |  | 0.321 | 0.344 | 0.281 | 0.254
NCI-H2228 | 0.912 | 0.687 | 0.697 | 0.947 | 0.779 | 0.948 | 0.878 | 0.608 | 0.785 |  |  |  |  |  | 0.243 | 0.245 | 0.243 | 0.224
SW 1573 |  | 0.345 | 0.419 | 0.393 | 0.477 | 0.411 | 0.413 | 0.391 | 0.334 |  |  |  |  |  | 0.115 | 0.175 | 0.185 | 0.177
NCI-H520 | 0.183 | 0.217 | 0.206 | 0.237 | 0.161 | 0.254 | 0.218 | 0.218 | 0.219 |  |  |  |  |  | 0.494 | 0.451 | 0.43 | 0.429
COR-L23 | 0.285 | 0.304 | 0.282 | 0.353 | 0.332 | 0.306 | 0.293 | 0.384 | 0.311 |  |  |  |  |  | 0.186 | 0.312 | 0.213 | 0.212
NCI-H1792 |  | 0.593 | 0.757 |  | 0.683 |  | 0.64 | 1.26 | 0.613 |  | 0.693 | 0.6 | 0.636 | 0.515 |  |  |  | 
NCI-H596 |  |  |  |  |  |  |  |  |  | 0.996 | 1.15 | 1.32 |  | 0.928 | 1.07 | 0.932 | 0.819 | 0.959
